These results are taken from patent US9458095B2, “Oligo-benzamide compounds and their use in treating cancers” (The Board of Regents of the University of Texas System, priority 2011, dated 2016).

Entries after “also recorded” stand apart in the source; their conditions may differ.

What all share (assay type): cell-based
Assay [1] has as its system WxxLF motif on AR. Briefly: Gal4-3WxxLF and AR-Gal4 (hARGAL4/PSAenhGAL4-luc) luciferase reporter assays. As to conditions: 100 nM peptidomimetic, 48 h, absence of androgens. The method, then: FIGS. 1A-D. Oligobenzamide control of C4-2 cell proliferation. (FIG. 1A) Chemical structure of T6. (FIG. 1B) C4-2 cells were transiently transfected with Gal4-3WxxLF promoter or (FIG. 1C) with synthetic hARGAL4 and the PSAenhGAL4-luc reporter. Cells were maintained for 48 h in the absence of androgens and with either 100 nM of peptidomimetic or volume equivalent of vehicle (DMSO) control and luciferase activity measured. (FIG. 1D) Peptidomimetics knocked down ligand independent proliferation in C4-2 cells
Ligand independent activation involves the WxxLF motif, whose tertiary structure has not been crystallographically resolved. Indeed, binding partners of AR through this WxxLF motif have not been determined. […] Based on this model, the inventors designed three peptidomimetics T6, T21 and T26 to mimic the ^435WxxLF^439 motif on AR and to target PPIs through this domain (FIG. 1A). The screening strategy involved the use of synthetic Gal4-3WxxLF (Gal4 reporter driven by 3 copies of the WxxLF motif) (FIG. 1B) and AR-Gal4 constructs (wt AR with its DNA binding domain replaced by Gal4 DNA binding domain) (from Dr. Dehm, U. Minnesota) (FIG. 1C) […]. T21, T26, or T6 (but not the control T6R) knocked down the basal ligand independent transcription from this WxxLF driven promoters. Further, these peptidomimetics abrogated ligand independent proliferation of C4-2 cells (FIG. 1D).

Assay [2] has as its target T1, ARΔ1 (Homo sapiens, UniProt P10275).
T1 construct: expressed in transfected cells; host or cells: PC-3 cells
T1 sequence (P10275 540-920 limits assumed): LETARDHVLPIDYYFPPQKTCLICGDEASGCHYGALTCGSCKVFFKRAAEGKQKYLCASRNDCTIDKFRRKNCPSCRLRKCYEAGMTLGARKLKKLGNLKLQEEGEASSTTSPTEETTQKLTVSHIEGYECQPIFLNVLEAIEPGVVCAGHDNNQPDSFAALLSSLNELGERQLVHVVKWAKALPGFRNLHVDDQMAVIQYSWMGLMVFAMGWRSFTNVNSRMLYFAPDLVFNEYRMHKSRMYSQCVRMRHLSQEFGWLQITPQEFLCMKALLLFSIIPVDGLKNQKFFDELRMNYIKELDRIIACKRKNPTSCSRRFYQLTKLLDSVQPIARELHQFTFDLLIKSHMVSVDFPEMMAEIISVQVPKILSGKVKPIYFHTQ
As to the kind of experiment: ARE-luciferase reporter in PC-3 cells expressing ARΔ1. Conditions: 100 nM peptidomimetic, 48 h. The method, then: (§1) FIGS. 2A-D. Oligobenzamide control of PC3 cell proliferation. (FIG. 2A) Structure of AR deletion mutants with numbered exons (FIG. 2B) Effect of D2 and T6 on basal (AI) and AD transcription. PC-3 cells were transiently transfected with ARE-luciferase along with plasmids expressing ARwt (FIG. 2B), ARv7 (FIG. 2C) or ARΔ1 (FIG. 2D). Cells were maintained for 48 h either without (EtOH) or with (1 nM DHT) and in the presence of 100 nM of peptidomimetic or volume equivalent of vehicle (DMSO) control. Luciferase assay results are shown. Data is normalized to the basal level of expression with AR wt in PC3 cells.
Since the WxxLF motif is also present in the truncated forms of the androgen receptor, the inventors then evaluated the ability of the peptidomimetics to block ARv7-driven transcription from a minimal ARE luciferase reporter. […] These findings were confirmed with a synthetic AR with point mutations in the WxxLF motif (data not shown).
(In general: In a reporter assay the amount or activity of a reporter protein is the signal.)

In assay [3] the test system is ARE activity in CWR22v1 cells (ARwt and ARv7). Briefly: ARE-luciferase reporter in CWR22v1 cells. The method, then: FIG. 4. Effect of T6 on basal level of ARE expression in CWR22v1 cells. CWR22v1 cells were transiently transfected with ARE-luciferase. Cells were maintained for 48 h without (EtOH) and in the presence of 100 nM of peptidomimetic or volume equivalent of vehicle (DMSO) control or 10 μM of casodex or MDV3100.

The target in assay [4] is T2, ARv7 (Homo sapiens, UniProt P10275).
T2 sequence (P10275 1-644 isoform P10275-3): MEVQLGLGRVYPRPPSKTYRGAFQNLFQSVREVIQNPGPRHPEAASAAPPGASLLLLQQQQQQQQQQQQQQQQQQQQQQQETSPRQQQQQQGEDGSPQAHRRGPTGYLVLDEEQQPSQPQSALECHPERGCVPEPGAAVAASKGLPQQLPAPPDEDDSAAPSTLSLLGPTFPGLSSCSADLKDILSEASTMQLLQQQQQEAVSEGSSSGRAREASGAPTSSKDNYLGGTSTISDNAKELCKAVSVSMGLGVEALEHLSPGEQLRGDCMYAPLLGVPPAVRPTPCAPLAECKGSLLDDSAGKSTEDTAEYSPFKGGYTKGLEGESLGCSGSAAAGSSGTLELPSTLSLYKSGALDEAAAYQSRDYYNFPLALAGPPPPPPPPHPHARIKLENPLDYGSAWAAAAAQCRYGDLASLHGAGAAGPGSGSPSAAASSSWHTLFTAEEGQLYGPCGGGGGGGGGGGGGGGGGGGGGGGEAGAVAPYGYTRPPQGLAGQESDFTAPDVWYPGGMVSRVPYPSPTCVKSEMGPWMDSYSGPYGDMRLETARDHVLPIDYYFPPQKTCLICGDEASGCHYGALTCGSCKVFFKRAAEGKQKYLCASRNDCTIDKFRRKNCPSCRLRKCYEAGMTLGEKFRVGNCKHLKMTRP
Briefly: ARE-luciferase reporter in PC-3 cells expressing ARv7. Further details: expressed in transfected cells; host or cells: PC-3 cells (A4); M12 cells (A9). Conditions: 100 nM peptidomimetic, 48 h. The method, then: as §1
FIGS. 3A-B. Effect of T6 on basal transcription driven by splice variants. PC-3 cells were transiently transfected with ARE-luciferase along with plasmids expressing ARv7 (FIG. 3A) or AR567 (FIG. 3B). Cells were maintained for 48 h either without (EtOH) or with (1 nM DHT) and in the presence of 100 nM of peptidomimetic or volume equivalent of vehicle (DMSO) control. Luciferase assay results are shown. Data is normalized to the basal level of expression with AR wt in PC3 cells.
Since the WxxLF motif is also present in the truncated forms of the androgen receptor, the inventors then evaluated the ability of the peptidomimetics to block ARv7-driven transcription from a minimal ARE luciferase reporter. […]

Turning to `CC(C)COc1cc(C(N)=O)ccc1NC(=O)c1ccc(NC(=O)c2ccc([N+](=O)[O-])c(OCCc3ccc4ccccc4c3)c2)c(OCC(C)C)c1` [T6], the “basal ligand independent transcription from WxxLF driven promoters” value in assay [1] is “knocked down”. Moreover, the ARΔ1-mediated transcription result in assay [2] was “not able to block”. In addition, the “basal transcription from minimal ARE luciferase in CWR22v1 cells (driven by ARv7)” value in assay [3] (100 nM peptidomimetic, 48 h, without androgen (EtOH)) is listed as “able to suppress; also recorded: abrogated”. Also, the “DHT-induced transcription from minimal ARE luciferase in CWR22v1 cells” value in assay [3] (DHT) is “able to suppress”. Moreover, the ARv7-mediated transcription result in assay [4] is “able to block; also recorded: decreases”.
